Measurements as given in article PMC11747885, “Potent inhibitors of the human RNA ligase Rlig1 highlights its role in RNA integrity maintenance under oxidative cellular stress” (Chemical Science, 2025).
Blank lines part the entries; values can stand above or below the compound they belong to.

Target: T1, Rlig1-AMP (Homo sapiens, UniProt Q8N999)
T1 construct: made in house; host or cells: E. coli BL21 (DE3), pET15b-Rlig1
Assay: FRET-based high-throughput screening of inhibitors for Rlig1-AMP
Format: biochemical
Details: for Raw data [w Enyzm]: with enzyme; for Raw data [w/o Enzym]: without enzyme

[1] = sheet HTS hits, MedChemExpress library
[2] = sheet HTS hits, difference of raw data w/o and w enzyme
[3] = HTS hits, difference of raw data w/o and w enzyme
[4] = HTS hits, normalised value of 1-D Distance
[5] = HTS hits, MedChemExpress library
[6] = HTS hits, difference of raw data without and with enzyme
[7] = HTS hits, normalized value (npi)

T1 sequence (Q8N999 whole entry): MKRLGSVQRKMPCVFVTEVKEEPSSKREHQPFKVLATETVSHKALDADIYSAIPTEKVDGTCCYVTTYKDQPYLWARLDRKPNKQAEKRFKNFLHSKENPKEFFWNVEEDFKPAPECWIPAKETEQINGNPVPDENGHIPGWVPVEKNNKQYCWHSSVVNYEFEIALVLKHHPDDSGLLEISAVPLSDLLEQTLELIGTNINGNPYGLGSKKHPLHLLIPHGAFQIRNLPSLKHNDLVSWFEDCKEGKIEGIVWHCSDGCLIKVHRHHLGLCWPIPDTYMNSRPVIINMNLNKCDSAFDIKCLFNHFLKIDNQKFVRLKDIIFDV

Structure (SMILES): COc1cccc2c1C(=N)c1c(O)c3c(c(O)c1C2=O)C[C@@](O)(C(C)=O)C[C@@H]3O[C@H]1C[C@H](N)[C@H](O)[C@H](C)O1.Cl [5-Iminodaunorubicin (hydrochloride)]
1-D Distance.npi [1]: 90.1534
1-D Distance [2]: 802
Raw data [w Enyzm] (sheet HTS hits): 2925
Raw data [w/o Enzym] (sheet HTS hits): 3727

Structure (SMILES): COc1cccc2c1C(=N)c1c(O)c3c(c(O)c1C2=O)C[C@@](O)(C(C)=O)C[C@@H]3O[C@H]1C[C@H](N)[C@H](O)[C@H](C)O1 [5-Iminodaunorubicin]
1-D Distance [3]: 1374
1-D Distance.npi [4]: 80.0753
Raw data [w Enyzm] (HTS hits): 2360
Raw data [w/o Enzym] (HTS hits): 3734

Structure (SMILES): CN(C)CCSSCCNC(=O)C1CCN(C(=O)CSc2ccc(Cl)cc2)CC1.O=C(O)C(F)(F)F [6H05 (TFA)]
1-D Distance [3]: 1774
1-D Distance.npi [4]: 75.4127
Raw data [w Enyzm] (HTS hits): 8996
Raw data [w/o Enzym] (HTS hits): 10770

Structure (SMILES): CC(C)=CC[C@H](O)C1=CC(=O)c2c(O)ccc(O)c2C1=O [(-)-Alkannin]
1-D Distance.npi [5]: 70.9637
1-D Distance [6]: 1812
Raw data [w Enyzm] (HTS hits): 3885

Structure (SMILES): Cc1ncsc1-c1ccc(CNC(=O)[C@@H]2C[C@@H](O)CN2C(=O)[C@@H](NC(=O)CCN)C(C)(C)C)cc1.Cl.Cl [(S,R,S)-AHPC-C2-NH2 (dihydrochloride)]
1-D Distance.npi [1]: 76.891
1-D Distance [2]: 1672
Raw data [w Enyzm] (sheet HTS hits): 9239
Raw data [w/o Enzym] (sheet HTS hits): 10911

Structure (SMILES): CCCCCCCCCCCCCCCC(=O)NCCCC[C@@H](N)C(=O)NCCCNCCCCNCCCN.Cl.Cl.Cl.Cl [AMXT-1501 tetrahydrochloride]
1-D Distance [3]: 45
1-D Distance.npi [7]: 103.958
Raw data [w Enyzm] (HTS hits): 4942
Raw data [w/o Enzym] (HTS hits): 4897

Structure (SMILES): O=C(O)c1ccc(-c2ccc(N(c3ccc(-c4ccc(C(=O)O)cc4)cc3)c3ccc(-c4ccc(C(=O)O)cc4)cc3)cc2)cc1 [Antibacterial agent 18]
1-D Distance.npi [5]: 80.2581
1-D Distance [6]: 1227
Raw data [w Enyzm] (HTS hits): 12110
Raw data [w/o Enzym] (HTS hits): 13337

Structure (SMILES): CN1CCC=C(C(=O)O)C1 [Arecaidine]
1-D Distance [3]: 1949
1-D Distance.npi [4]: 71.9903
Raw data [w Enyzm] (HTS hits): 8786
Raw data [w/o Enzym] (HTS hits): 10735

Structure (SMILES): C=C1C(=O)O[C@@H]2[C@H]3C(C)=CC[C@@]34O[C@@]4(C)CC[C@@H]12 [Arglabin]
1-D Distance [3]: 1673
Raw data [w Enyzm] (HTS hits): 8885
Raw data [w/o Enzym] (HTS hits): 10558

Structure (SMILES): CC(=O)Nc1cc(Oc2ccc3c(C(=O)Nc4ccc(CN5CCN(C)CC5)c(C(F)(F)F)c4)cccc3c2)ncn1 [BGG463]
1-D Distance [3]: 797
1-D Distance.npi [7]: 93.5609
Raw data [w Enyzm] (HTS hits): 8276
Raw data [w/o Enzym] (HTS hits): 9073

Structure (SMILES): C[n+]1ccc(/C=C/c2ccc3c(c2)c2cc(/C=C/c4cc[n+](C)cc4)ccc2n3CCOCCOCCOCC[N+]2(C)CCCCC2)cc1.[I-].[I-].[I-] [BMVC-8C3O]
1-D Distance [3]: 496
1-D Distance.npi [7]: 99.5333
Raw data [w Enyzm] (HTS hits): 3841
Raw data [w/o Enzym] (HTS hits): 4337

Structure (SMILES): O=c1[nH]c(=O)c2ccccc2[nH]1 [Benzoyleneurea]
1-D Distance.npi [5]: 70.2932
1-D Distance [6]: 1891
Raw data [w Enyzm] (HTS hits): 9137
Raw data [w/o Enzym] (HTS hits): 11028

Structure (SMILES): O=C(O)CCCN1CCC(O[C@@H](c2ccc(Cl)cc2)c2ccccn2)CC1.O=S(=O)(O)c1ccccc1 [Bepotastine (besilate)]
1-D Distance.npi [1]: 70.3956
1-D Distance [2]: 1900
Raw data [w Enyzm] (sheet HTS hits): 8762
Raw data [w/o Enzym] (sheet HTS hits): 10662

Structure (SMILES): C#CCOCCOCCOCCOCC#C [Bis-propargyl-PEG3]
1-D Distance.npi [1]: 78.8376
1-D Distance [2]: 1567
Raw data [w Enyzm] (sheet HTS hits): 9208
Raw data [w/o Enzym] (sheet HTS hits): 10775

Structure (SMILES): CN(C)c1ccc(Nc2c3ccc(NC(=O)CCN4CCCC4)cc3nc3cc(NC(=O)CCN4CCCC4)ccc23)cc1.Cl.Cl.Cl [Braco-19 (trihydrochloride)]
1-D Distance [3]: 99
1-D Distance.npi [4]: 102.921
Raw data [w Enyzm] (HTS hits): 2490
Raw data [w/o Enzym] (HTS hits): 2391

Structure (SMILES): CC(=O)Nc1ccc(S(=O)(=O)[O-])c2cc(S(=O)(=O)[O-])c(N=Nc3ccc(N=Nc4ccc(S(=O)(=O)[O-])cc4)c4ccc(S(=O)(=O)[O-])cc34)c(O)c12.[Na+].[Na+].[Na+].[Na+] [Brilliant Black BN]
1-D Distance.npi [5]: 98.2105
1-D Distance [6]: 272
Raw data [w Enyzm] (HTS hits): 1620
Raw data [w/o Enzym] (HTS hits): 1348

Structure (SMILES): Cc1cccc2c3c(ccc12)C(=O)C1=C(OCC1C)C3=O (stereo not drawn) [Dihydroisotanshinone I]
1-D Distance.npi [1]: 72.3395
1-D Distance [2]: 1938
Raw data [w Enyzm] (sheet HTS hits): 11164
Raw data [w/o Enzym] (sheet HTS hits): 13102

Structure (SMILES): COc1c2c3c4c(c(OC)c(=O)c5c(O)cc(OC)c(c6c(OC)cc(O)c(c1=O)c63)c54)[C@@H](C(C)=O)[C@@](C)(O)C2 [Hypocrellin A]
1-D Distance [3]: 1179
Raw data [w Enyzm] (HTS hits): 1866
Raw data [w/o Enzym] (HTS hits): 3045

Structure (SMILES): CC(C)c1nc2c([nH]1)-c1ccccc1C(=O)C2=O [KL1333]
1-D Distance [3]: 578
1-D Distance.npi [7]: 96.7085
Raw data [w Enyzm] (HTS hits): 12041
Raw data [w/o Enzym] (HTS hits): 12619

Structure (SMILES): CN(C)CCOC(=O)COc1ccc(Cl)cc1.Cl [Meclofenoxate (hydrochloride)]
1-D Distance.npi [5]: 72.0073
1-D Distance [6]: 1832
Raw data [w Enyzm] (HTS hits): 9480
Raw data [w/o Enzym] (HTS hits): 11312

Structure (SMILES): COS(=O)(=O)[O-].COc1cccc2c1nc1ccccc1[n+]2C [Methoxy-PMS]
1-D Distance [3]: 2097
1-D Distance.npi [7]: 71.83
Raw data [w Enyzm] (HTS hits): 4514
Raw data [w/o Enzym] (HTS hits): 6611

Continued, values first:

1-D Distance.npi [1]: 72.9978
1-D Distance [2]: 1882
Raw data [w Enyzm] (sheet HTS hits): 9154
Raw data [w/o Enzym] (sheet HTS hits): 11036
Structure (SMILES): CC(C)(C)OC(=O)CCOCCBr [Bromo-PEG1-C2-Boc]

1-D Distance [6]: 1393
Raw data [w Enyzm] (HTS hits): 2370
Raw data [w/o Enzym] (HTS hits): 3763
Structure (SMILES): CC(/C=C/C=C(\C)C(=O)O[C@@H]1O[C@H](CO[C@@H]2O[C@H](CO)[C@@H](O)[C@H](O)[C@H]2O)[C@@H](O)[C@H](O)[C@H]1O)=C\C=C\C=C(C)\C=C\C=C(/C)C(=O)O[C@@H]1O[C@H](CO[C@@H]2O[C@H](CO)[C@@H](O)[C@H](O)[C@H]2O)[C@@H](O)[C@H](O)[C@H]1O [Crocin]

1-D Distance [3]: 1434
1-D Distance.npi [7]: 83.3585
Raw data [w Enyzm] (HTS hits): 2111
Raw data [w/o Enzym] (HTS hits): 3545
Structure (SMILES): COc1cccc2c1C(=O)c1c(O)c3c(c(O)c1C2=O)C[C@@](O)(C(C)=O)C[C@@H]3O[C@H]1C[C@H](NC(=O)OCc2ccc(O[C@@H]3O[C@H](CO)[C@H](O)[C@H](O)[C@H]3O)c([N+](=O)[O-])c2)[C@H](O)[C@H](C)O1 [Daun02]

1-D Distance.npi [1]: 92.4928
1-D Distance [2]: 680
Raw data [w Enyzm] (sheet HTS hits): 3683
Raw data [w/o Enzym] (sheet HTS hits): 4363
Structure (SMILES): CC1=NN(c2ccc(C)c(C)c2)C(=O)/C1=N\Nc1cccc(-c2cccc(C(=O)O)c2)c1O.NCCO.NCCO [Eltrombopag (Olamine)]

1-D Distance.npi [5]: 99.0682
1-D Distance [6]: 316
Raw data [w Enyzm] (HTS hits): 1246
Structure (SMILES): COc1cccc2c1C(=O)c1c(O)c3c(c(O)c1C2=O)C[C@@](O)(C(=O)CO)C[C@@H]3O[C@H]1C[C@H](N)[C@@H](O)[C@H](C)O1.Cl [Epirubicin (hydrochloride)]

1-D Distance.npi [1]: 75.4657
1-D Distance [2]: 1636
Raw data [w Enyzm] (sheet HTS hits): 9299
Raw data [w/o Enzym] (sheet HTS hits): 10935
Structure (SMILES): CC(=O)O[C@H]1C[C@@]2(C)[C@@H](C[C@@H](O)[C@H]3[C@@]4(C)CC[C@@H](O)[C@@H](C)[C@@H]4CC[C@@]32C)/C1=C(\CCC=C(C)C)C(=O)[O-].[Na+] [Fusidic acid (sodium salt)]

1-D Distance.npi [1]: 76.0753
1-D Distance [2]: 1716
Raw data [w Enyzm] (sheet HTS hits): 4406
Raw data [w/o Enzym] (sheet HTS hits): 6122
Structure (SMILES): C=CC1=C(C)c2cc3[n-]c(cc4nc(cc5[n-]c(cc1n2)c(C)c5C=C)C(C)=C4CCC(=O)O)c(CCC(=O)O)c3C.[Cl-].[Fe+3] [Hemin]

1-D Distance.npi [5]: 78.9236
1-D Distance [6]: 1452
Raw data [w Enyzm] (HTS hits): 4827
Raw data [w/o Enzym] (HTS hits): 6279
Structure (SMILES): C/C1=C2/[N-]C([C@H](CC(N)=O)[C@@]2(C)CCC(=O)NC[C@@H](C)OP(=O)([O-])O[C@H]2[C@@H](O)[C@@H](n3cnc4cc(C)c(C)cc43)O[C@@H]2CO)[C@]2(C)N=C(/C(C)=C3N=C(/C=C4N=C1[C@@H](CCC(N)=O)C\4(C)C)[C@@H](CCC(N)=O)[C@]\3(C)CC(N)=O)[C@@H](CCC(N)=O)[C@]2(C)CC(N)=O.CC(=O)[O-].[Co+3] [Hydroxocobalamin (acetate)]

1-D Distance.npi [1]: 101.9
1-D Distance [2]: 179
Raw data [w Enyzm] (sheet HTS hits): 5221
Raw data [w/o Enzym] (sheet HTS hits): 5042
Structure (SMILES): C/C1=C2N=C(/C=C3N=C(/C(C)=C4\[N-]C(C(CC(N)=O)C4(C)CCC(=O)NCC(C)OP(=O)([O-])OC4C(CO)OC(n5cnc6cc(C)c(C)cc65)C4O)C4(C)N=C1C(CCC(N)=O)C4(C)CC(N)=O)C(CCC(N)=O)C\3(C)C)C(CCC(N)=O)C/2(C)CC(N)=O.Cl.[Co+3].[OH-] (stereo not drawn) [Hydroxocobalamin (monohydrochloride)]

1-D Distance.npi [5]: 74.8199
1-D Distance [6]: 1722
Raw data [w Enyzm] (HTS hits): 5823
Raw data [w/o Enzym] (HTS hits): 7545
Structure (SMILES): CC(=O)[C@]1(O)Cc2c(O)c3c(c(O)c2[C@@H](O[C@H]2C[C@H](N)[C@H](O)[C@H](C)O2)C1)C(=O)c1ccccc1C3=O.Cl [Idarubicin (hydrochloride)]

1-D Distance [3]: 1124
Raw data [w Enyzm] (HTS hits): 9158
Raw data [w/o Enzym] (HTS hits): 10282
Structure (SMILES): N[C@@H](CS)C(=O)O [L-Cysteine]

1-D Distance.npi [5]: 92.9896
1-D Distance [6]: 555
Raw data [w Enyzm] (HTS hits): 9448
Structure (SMILES): N#Cc1cc(NS(=O)(=O)c2ccc(N)cc2)ccc1Oc1ccc(Cl)c(C(F)(F)F)c1 [Lp-PLA2-IN-3]

1-D Distance [3]: 2067
1-D Distance.npi [4]: 70.3748
Raw data [w Enyzm] (HTS hits): 8807
Raw data [w/o Enzym] (HTS hits): 10874
Structure (SMILES): COC(=O)Cc1ccc(C(C)(C)C)cc1 [Methyl p-tert-butylphenylacetate]
